In ChEMBL document CHEMBL6182916, “Unexpected Discovery of a Novel Triphenylphosphonium Alkylalcohol That Triggers Cancer Cell Death via Mitophagy and Ferroptosis” (J Med Chem, 2025):
Activity calls are given as the source filed them. The calls are words filed in the database; no cut-off is given here.

Assays:
HCC827 [1] = assay: Downregulation of TOMM20 expression level in human HCC827 cells incubated for 24 hrs by Western blot analysis; format: functional, cell-based; conditions: dose 0.25-0.5 µM
BEAS-2B = assay: Induction of mitochondrial dysfunction in human BEAS-2B cells assessed as decrease in ATP production at 0.125 to 5 uM incubated for 4 hrs by Seahorse XF96 extracellular flux analyzer; format: functional, cell-based; conditions: dose 0.125-5 µM
HCC827 [2] = assay: Downregulation of SDHB expression in human HCC827 cells at 0.25 to 0.5 uM; format: functional, cell-based; conditions: dose 0.25-0.5 µM
[3] = Antiproliferative activity against human HUVEC cells assessed as inhibition of cell growth measured after 72 hrs by MTT assay; format: toxicity, cell-based
HCC827 [4] = assay: Induction of cell cycle arrest in human HCC827 cells assessed as accumulation of cells at S phase at 0.4 uM incubated for 24 hrs by PI staining based flow cytometry analysis (reference value: 26.41%); format: functional
Mitochondrial membrane [5] = assay: Induction of mitochondrial membrane depolarization in human BEAS-2B cells assessed as JC-1 monomer ratio by measuring increase green fluorescence at 0.25 uM incubated for 4 hrs by JC-1 staining based confocal microscopy analysis; format: cell membranes
[6] = Antiproliferative activity against human BEAS-2B cells assessed as inhibition of cell growth measured after 72 hrs by MTT assay; format: toxicity, cell-based
HCC827 [7] = assay: Antimetastatic activity against human HCC827 cells xenografted in female nude mouse model assessed as decrease in vimentin level at 5 to 10 mg/kg, ip by Western blot analysis; format: functional, organism-based; conditions: dose 5-10 mg/kg
HCC827 [8] = assay: Antimetastatic activity against human HCC827 cells xenografted in female nude mouse model assessed as increase in cadherin level at 5 to 10 mg/kg, ip by Western blot analysis; format: functional, organism-based; conditions: dose 5-10 mg/kg
HCC827 [9] = assay: Downregulation of HK-2 expression level in human HCC827 cells incubated for 24 hrs by Western blot analysis; format: functional, cell-based; conditions: dose 0.25-0.5 µM
[10] = Drug accumulation in mitochondria of human HCC827 cells at 10 uM incubated for 10 mins in presence of CCCP by RP-HPLC-UV analysis; format: ADME; conditions: hcc827, 10 min
HCC827 [11] = assay: Induction of cell cycle arrest in human HCC827 cells assessed as accumulation of cells at S phase at 0.1 uM incubated for 24 hrs by PI staining based flow cytometry analysis (reference value: 26.41%); format: functional
HCC827 [12] = assay: Downregulation of SDHB protein level in human HCC827 cells at 0.25 to 0.5 uM measured after 12 hrs; format: functional, cell-based; conditions: dose 0.25-0.5 µM
HCC827 [13] = assay: Antiproliferative activity against human HCC827 cells assessed as cell viability measured after 48 hrs by MTT assay; format: functional, cell-based; conditions: HCC827, 48 h
HCC827 [14] = assay: Induction of mitochondrial dysfunction in human HCC827 cells assessed as cristae reduction by TEM analysis; format: functional, cell-based
HCC827 [15] = assay: Upregulation of parkin phosphorylation level in human HCC827 cells at 0.25 to 0.5 uM measured after 24 hrs; format: functional, cell-based; conditions: dose 0.25-0.5 µM
HCC827 [16] = assay: Induction of apoptosis in human HCC827 cells assessed as early apoptotic cells at 0.5 uM measured after 48 hrs by annexin V and PI staining based flow cytometry analysis (reference value: 0.70%); format: functional
[17] = Antiproliferative activity against human Osimertinib-resistant HCC827 cell assessed as inhibition of cell growth measured after 72 hrs by MTT assay; format: functional, cell-based
[18] = tested on: Osimertinib-resistant NCI-H1975 cell; assay: Antiproliferative activity against human Osimertinib-resistant NCI-H1975 cell assessed as inhibition of cell growth measured after 72 hrs by MTT assay; format: functional, cell-based
HCC827 [19] = assay: Induction of mitochondrial dysfunction in human HCC827 cells assessed as suppression of maximal oxygen consumption rate incubated for 4 hrs by Seahorse XF96 extracellular flux analyzer; format: functional, cell-based; conditions: dose 0.125-5 µM
HCC827 [20] = assay: Induction of mitophagy in human HCC827 cells assessed as increase in LC3-II/LC-3-I ratio at 0.5 uM measured after 24 hrs by Western blot analysis; format: functional, cell-based
HCC827 [21] = assay: Induction of cell cycle arrest in human HCC827 assessed as increase in p21 expression level at 0.25 to 5 uM measured after 24 hrs by Western blot analysis; format: functional, cell-based; conditions: dose 0.25-5 µM
HCC827 [22] = assay: Induction of apoptosis in human HCC827 cells assessed as necrotic cells at 0.5 uM measured after 48 hrs by annexin V and PI staining based flow cytometry analysis (reference value: 1.18%); format: functional
HCC827 [23] = assay: Downregulation of TIMM23 expression level in human HCC827 cells at 0.5 uM by Western blot analysis; format: functional, cell-based; conditions: time 3-24 hrs
HCC827 [24] = assay: Induction of apoptosis in human HCC827 cells assessed as viable cells at 1 uM measured after 24 hrs by annexin V and PI staining based flow cytometry analysis (reference value: 95.10%); format: functional; conditions: read-out: Activity
[25] = Toxicity in male Kunming mouse assessed as animal death at 70 mg/kg, ip measured every two days for 7 days; format: organism-based; conditions: in vivo, 168 h, time 7 day
HCC827 [26] = assay: Induction of ROS generation in human HCC827 cells assessed as increase in NAD+/NADH ratio at 1 uM incubated for 4 hrs by absorbance based analysis; format: functional, cell-based
HCT-116 = assay: Antiproliferative activity against human HCT-116 cells assessed as inhibition of cell growth measured after 72 hrs by MTT assay; format: functional, cell-based; conditions: HCT-116, 72 h
HCC827 [27] = assay: Downregulation of TOMM20 expression level in human HCC827 cells at 0.5 uM by Western blot analysis; format: functional, cell-based; conditions: time 3-24 hrs
HCC827 [28] = assay: Induction of apoptosis in human HCC827 cells assessed as viable cells at 1.0 uM measured after 48 hrs by annexin V and PI staining based flow cytometry analysis (reference value: 96.74%); format: functional; conditions: read-out: Activity
NCI-H460 = assay: Antiproliferative activity against human NCI-H460 cells assessed as inhibition of cell growth measured after 72 hrs by MTT assay; format: functional, cell-based; conditions: NCI-H460, 72 h
Mitochondrial membrane [29] = assay: Induction of mitochondrial membrane depolarization in human HCC827 cells assessed as increase green fluorescence incubated for 4 hrs by JC-1 staining based confocal microscopy analysis; format: cell membranes; conditions: dose 0.125-0.5 µM
HCC827 [30] = assay: Induction of apoptosis in human HCC827 cells assessed as viable cells at 0.5 uM measured after 48 hrs by annexin V and PI staining based flow cytometry analysis (reference value: 96.74%); format: functional; conditions: read-out: Activity
HCC827 [31] = assay: Induction of ferroptosis in human HCC827 cells assessed as decrease in glutathione reductase activity at 0.25 to 0.5 uM incubated for 24 hrs by DTNB solution based based microplate reader analysis; format: functional, cell-based; conditions: dose 0.25-0.5 µM
NCI-H1650 = assay: Antiproliferative activity against human NCI-H1650 cells assessed as inhibition of cell growth measured after 72 hrs by MTT assay; format: functional, cell-based; conditions: NCI-H1650, 72 h
HCC827 [32] = assay: Antimetastatic activity against human HCC827 cells xenografted in female nude mouse model assessed as decrease in snail level at 5 to 10 mg/kg, ip by Western blot analysis; format: functional, organism-based; conditions: dose 5-10 mg/kg
[33] = Toxicity in male Kunming mouse assessed as change in body weight at 50 mg/kg, ip measured every two days for 7 days; format: organism-based; conditions: in vivo, 168 h, time 7 day
HCC827 [34] = assay: Induction of mitochondrial dysfunction in human HCC827 cells assessed as cytochrome C release in cytoplasm at 0.4 uM measured after 72 hrs by laser scanning confocal fluorescence microscopic analysis; format: functional, cell-based
HCC827 [35] = assay: Effect on COX1 expression in human HCC827 cells at 0.25 to 0.5 uM; format: functional, cell-based; conditions: dose 0.25-0.5 µM

Cc1ccc([P+](CCCCCCCCCCO)(c2ccc(C)cc2)c2ccc(C)cc2)cc1.[Br-]
Activity (HCC827 [1]): Dose-dependent-effect | Activity (BEAS-2B): Minimal_effect | Activity (HCC827 [2]): Active | IC50 at 72 h [3]: 1800 nM | Activity (HCC827 [4]): 9.39% | Activity (Mitochondrial membrane [5]): inactive | IC50 at 72 h [6]: 1420 nM | Activity (HCC827 [7]): Active | Activity (HCC827 [8]): Active | Activity (HCC827 [9]): Dose-dependent-effect | Drug uptake [10]: Not_active | Activity (HCC827 [11]): 24.03% | Activity (HCC827 [12]): Active | IC50 (HCC827 [13]): 120 nM | Activity (HCC827 [14]): Active | Activity (HCC827 [15]): Active | Activity (HCC827 [16]): 2.34% | IC50 [17]: 230 nM | IC50 [18]: 230 nM | Activity (HCC827 [19]): Dose-dependent-effect | Activity (HCC827 [20]): Active | Activity (HCC827 [21]): Active | Activity (HCC827 [22]): 2.09% | Activity (HCC827 [23]): Time-dependent-effect | viability at 1 µM (HCC827 [24]): 93.6% | Activity [25]: Toxic | Activity (HCC827 [26]): Active | IC50 (HCT-116): 620 nM | Activity (HCC827 [27]): Time-dependent-effect | viability at 1 µM (HCC827 [28]): 82.8% | IC50 (NCI-H460): 110 nM | Activity (Mitochondrial membrane [29]): Dose-dependent-effect | viability at 0.5 µM (HCC827 [30]): 88.5% | Activity (HCC827 [31]): Active | IC50 (NCI-H1650): 470 nM | Activity (HCC827 [32]): Active | Activity [33]: Toxic | Activity (HCC827 [34]): Active | Activity (HCC827 [35]): Active
